In ChEMBL document CHEMBL5241058, “Pyrazole-based analogs as potential antibacterial agents against methicillin-resistance staphylococcus aureus (MRSA) and its SAR elucidation” (Eur J Med Chem, 2021):
Values after ≈ are worked out from the molar mass of the structure shown. One block for each molecule: values may come before it.

How the values were obtained:
Assay type in all cases: functional
[1] = test system: Staphylococcus aureus; assay: Antimicrobial activity against Methicillin-resistant Staphylococcus aureus CCARM 3506 assessed as bacterial growth inhibition incubated for 24 hrs by ELISA assay
[2] = test system: Staphylococcus aureus; assay: Antimicrobial activity against Methicillin-resistant Staphylococcus aureus assessed as bacterial growth inhibition incubated for 24 to 48 hrs by microdilution method; details: time 24-48 hrs
[3] = test system: Staphylococcus aureus; assay: Antimicrobial activity against Methicillin-resistant Staphylococcus aureus assessed as bacterial growth inhibition
[4] = test system: Staphylococcus aureus; assay: Antimicrobial activity against vancomycin intermediate-resistant Staphylococcus aureus assessed as bacterial growth inhibition incubated for 24 hrs by microdilution method
[5] = test system: Staphylococcus aureus; assay: Antimicrobial activity against Methicillin-resistant Staphylococcus aureus ATCC 43300 assessed as bacterial growth inhibition incubated for 24 hrs by microdilution method; details: ATCC43300
[6] = test system: Staphylococcus aureus; assay: Antimicrobial activity against Staphylococcus aureus MTCC 96 assessed as bacterial growth inhibition incubated for 24 to 48 hrs; details: time 24-48 hrs
[7] = test system: Staphylococcus aureus; assay: Antimicrobial activity against Staphylococcus aureus MTCC 442 assessed as bacterial growth inhibition incubated for 24 to 48 hrs; details: time 24-48 hrs
[8] = test system: Staphylococcus aureus; assay: Antimicrobial activity against Methicillin-resistant Staphylococcus aureus ATCC 43300 assessed as bacterial growth inhibition by microdilution method
[9] = test system: Staphylococcus aureus; assay: Antimicrobial activity against Methicillin-resistant Staphylococcus aureus ATCC 33599 assessed as bacterial growth inhibition
[10] = test system: Pseudomonas aeruginosa; assay: Antimicrobial activity against Pseudomonas aeruginosa ATCC 27853 assessed as bacterial growth inhibition incubated for 18 hrs by microdilution method
[11] = test system: Escherichia coli; assay: Antimicrobial activity against Escherichia coli ATCC 8739 assessed as bacterial growth inhibition incubated for 18 hrs by microdilution method
[12] = test system: Salmonella enterica subsp. enterica; assay: Antimicrobial activity against Salmonella typhimurium […] assessed as bacterial growth inhibition incubated for 18 hrs by microdilution method
[13] = test system: Klebsiella pneumoniae; assay: Antimicrobial activity against Klebsiella pneumoniae ATCC 314588 assessed as bacterial growth inhibition incubated for 18 hrs by microdilution method

Structure (SMILES): Cc1nn(-c2ccc(Cl)cc2Cl)c(Oc2ccc(Cl)cc2)c1C1N=C(N)NC(NCCc2ccccc2)=N1 (stereo not drawn)
MIC [1]: 0.5 µg/mL (≈ 0.879 µM)

Structure (SMILES): Cc1onc(-c2ccccc2Cl)c1C(=O)N[C@@H]1C(=O)N2[C@@H]1SC(C)(C)[C@@H]2C(=O)O [CLOXACILLIN]
MIC [2]: 94 µg/mL (≈ 216 µM)

Structure (SMILES): CCCn1ncc2c3c(C#N)c4ccc(Br)cc4nc3ccc21
MIC [3]: 1 µg/mL (≈ 2.74 µM)

Structure (SMILES): O=C(c1cc(C(F)(F)F)n[nH]1)c1cccc(Br)c1O
MIC [4]: < 0.125 µg/mL

Structure (SMILES): Cc1ccc(C(=O)Nc2c(C(N)=O)cnn2-c2ccc([N+](=O)[O-])cc2[N+](=O)[O-])cc1
MIC [2]: 42 µg/mL (≈ 102 µM)

Structure (SMILES): CC1=C(C(=O)O)N2C(=O)[C@@H](NC(=O)[C@H](N)c3ccccc3)[C@H]2SC1 [CEPHALEXIN ANHYDROUS]
MIC [2]: 72 µg/mL (≈ 207 µM)

Structure (SMILES): CCn1ncc2c3c(C#N)c4ccccc4nc3ccc21
MIC [3]: 3 µg/mL (≈ 11 µM)

Structure (SMILES): Cc1nn(-c2ccc(Cl)cc2)c2c1C(C(=O)O)CC=C(C(=O)O)N2 (stereo not drawn)
MIC [5]: > 500 µg/mL

Structure (SMILES): Cn1ncc2c3c(C#N)c4ccccc4nc3ccc21
MIC [3]: 6 µg/mL (≈ 23.2 µM)

Structure (SMILES): CCn1ncc2c3c(C#N)c4ccc(Br)cc4nc3ccc21
MIC [3]: 2 µg/mL (≈ 5.69 µM)

Structure (SMILES): O=C(/C=C/c1ccc([N+](=O)[O-])cc1)N1N=C(c2ccncc2)OC1c1cn(-c2ccccc2)nc1-c1ccc(F)cc1 (stereo not drawn)
MIC [6]: 12.5 µg/mL (≈ 22.3 µM)
MIC [7]: 12.5 µg/mL (≈ 22.3 µM)

Structure (SMILES): CCCn1ncc2c3c(C#N)c4ccccc4nc3ccc21
MIC [3]: 3 µg/mL (≈ 10.5 µM)

Structure (SMILES): CC[C@H]1OC(=O)[C@H](C)[C@@H](O[C@H]2C[C@@](C)(OC)[C@@H](O)[C@H](C)O2)[C@H](C)[C@@H](O[C@@H]2O[C@H](C)C[C@H](N(C)C)[C@H]2O)[C@](C)(O)C[C@@H](C)C(=O)[C@H](C)[C@@H](O)[C@]1(C)O [ERYTHROMYCIN]
MIC [2]: 32 µg/mL (≈ 43.6 µM)

Structure (SMILES): O=C(c1cc(C(F)(F)F)n[nH]1)c1cc(Br)ccc1O
MIC [4]: < 0.125 µg/mL

Structure (SMILES): NC(=O)c1cnn(-c2ccc([N+](=O)[O-])cc2[N+](=O)[O-])c1NC(=O)c1cccc(Cl)c1
MIC [2]: 45.3 µg/mL (≈ 105 µM)

Structure (SMILES): NC(=O)c1cnn(-c2ccc([N+](=O)[O-])cc2[N+](=O)[O-])c1NC(=O)c1ccc(Br)cc1
MIC [2]: 29.4 µg/mL (≈ 61.9 µM)

Structure (SMILES): O=C1S/C(=C\c2cn(-c3ccccc3)nc2-c2ccc(Cl)cc2)C(=O)N1CCCn1ccc2ccccc21
MIC [8]: > 50 µg/mL

Structure (SMILES): COc1cc(Cc2cnc(N)nc2N)cc(OC)c1OC [TRIMETHOPRIM]
MIC [1]: 4 µg/mL (≈ 13.8 µM)

Structure (SMILES): O=C(O)c1ccc(-n2cc(/C=N/c3ccc(C(F)(F)F)cc3)c(-c3ccc4ccccc4c3)n2)cc1
MBC [9]: 25 µg/mL (≈ 51.5 µM)
MIC [9]: 0.78 µg/mL (≈ 1.61 µM)

Structure (SMILES): O=C1CN(c2nnc(-c3cccc([N+](=O)[O-])c3)s2)C(c2cn(-c3ccccc3)nc2-c2cccc([N+](=O)[O-])c2)S1 (stereo not drawn)
MBC [3]: 312 µg/mL (≈ 547 µM)

Structure (SMILES): Cc1ccc(O)c(C(=O)c2cc(C(F)(F)F)n[nH]2)c1
MIC [4]: < 0.125 µg/mL

Structure (SMILES): NC(=O)c1cnn(-c2ccc([N+](=O)[O-])cc2[N+](=O)[O-])c1NC(=O)c1ccc(Cl)cc1
MIC [2]: 39 µg/mL (≈ 90.5 µM)

MIC [10]: < 1 µg/mL
MIC [11]: < 1 µg/mL
MIC [12]: < 1 µg/mL
MIC [13]: < 1 µg/mL
Structure (SMILES): Clc1ccccc1-c1nn(-c2ccccc2)cc1-c1nc2ccccn2c1Cc1ccccc1

Structure (SMILES): Cc1nn(-c2ccccc2Cl)c2c1C(C(=O)O)CC=C(C(=O)O)N2 (stereo not drawn)
MIC [5]: > 500 µg/mL

Structure (SMILES): Cc1cc(O)c(C(=O)c2cc(C(F)(F)F)n[nH]2)cc1Cl
MIC [4]: < 0.125 µg/mL

MIC [10]: < 1 µg/mL
MIC [11]: < 1 µg/mL
MIC [12]: < 1 µg/mL
MIC [13]: < 1 µg/mL
Structure (SMILES): Oc1ccccc1-c1nn(-c2ccccc2)cc1-c1nc2ccccn2c1Cc1ccccc1

Structure (SMILES): O=C(c1cc(C(F)(F)F)n[nH]1)c1cc(Cl)cc(Cl)c1O
MIC [4]: < 0.125 µg/mL

Structure (SMILES): Cn1ncc2c3c(C#N)c4ccc(Br)cc4nc3ccc21
MIC [3]: 2 µg/mL (≈ 5.93 µM)

Structure (SMILES): CC(=O)Nc1c(C(N)=O)cnn1-c1ccc([N+](=O)[O-])cc1[N+](=O)[O-]
MIC [2]: 99.4 µg/mL (≈ 297 µM)

Structure (SMILES): NC(=O)c1cnn(-c2ccc([N+](=O)[O-])cc2[N+](=O)[O-])c1NC(=O)c1ccccc1
MIC [2]: 75.3 µg/mL (≈ 190 µM)
